Each structure is given as a SMILES string.

The values below come from article PMC3683333, “^11C-LY2428703, a positron emission tomographic radioligand for the metabotropic glutamate receptor 1, is unsuitable for imaging in monkey and human brains” (EJNMMI Research, 2013).

Series [1] is described as follows: Plasma free fraction by ultrafiltration, monkey. The format is in vitro ADME, rhesus monkeys. How it is done: The plasma free fraction (fp) of ^11C-LY2428703 was measured by ultrafiltration through membrane filters (Centrifree; Millipore, Billerica, MA, USA) as previously described. Briefly, about 740 kBq of ^11C-LY2428703 (approximately 5 μL) was added to 650 μL of plasma. The mixture was incubated at room temperature for 10 min and then processed as described previously. When radioactivities for the filter components were high, they were allowed to decay until they were within the optimal range of the γ-counter. Determining the free fraction during preblocking was done by drawing blood samples after the preblocking treatments were initiated but immediately before administering the radioligand.
To assess the effects of blocking agents on the fP of ^11C-LY2428703, fP was measured in three monkeys both at baseline and after blockade. The first monkey was blocked with cold LY2428703 and fP was measured 2.5 min after blocker injection (which corresponds to the maximal concentration in plasma of LY2428703), and again at 40 min. The other two monkeys were blocked with DCPQ and elacridar, respectively.

A short description of series [2]: Arterial plasma analysis after injection, monkey. The series is classed as in vivo, rhesus monkeys. Particulars: after intravenous injection. How it is done: Plasma analyses were performed on a reverse-phase chromatography C18 column (Novapak, 4 μm, 100 × 8 mm, Waters Corp. Milford, MA, USA) using Radial-Pak® compression module RCM-100 with a sentry pre-column. Human plasma analyses were performed with a mobile phase of […], at a flow rate of 2.5 mL/min; nonhuman primate plasma samples were analyzed with a mobile phase of MeOH/H2O/Et3N, 72.5:27.5:0.1 by volume, at a flow rate of 1.5 mL/min. To compare the outcome from both systems, elution volume is reported rather than retention time.
Arterial plasma was analyzed as previously described. Briefly, after ^11C-LY2428703 injection into either human or nonhuman primate, the input function was determined by periodically drawing anticoagulated blood samples. […] The samples were counted in the γ-counter and centrifuged at 10,000×g for 1 min. […] The precipitates were then counted for radioactivity to allow the calculation of the efficiency of recovery of radioactivity in the acetonitrile. […]
PET images were acquired using either the high-resolution research tomograph (HRRT) or the FOCUS 220 scanner (Siemens/CPS, Knoxville, TN, USA) for 120 min in 33 frames, with frame durations ranging from 30 s to 5 min, and correcting for attenuation and scatter. […] Electrocardiograph, body temperature, heart rate, and respiration rate were measured throughout the experiment. […]

Series [3] in a line: Whole-body biodistribution and radiation dosimetry, monkey. The format is in vivo, rhesus monkeys. The settings on record: for radiation-absorbed dose: monkey data extrapolated to 70-kg adult male. How it is done:
Two male rhesus monkeys (14.1 and 19.9 kg) were scanned after intravenous injection of 318 and 274 MBq of ^11C-LY2428703, respectively. Dynamic two-dimensional scans were acquired on the GE Advance tomograph (GE Medical Systems, Milwaukee, WI, USA) in five bed positions of the body (head to upper thigh), with frames of increasing duration (15 s to 4 min) for a total scan time of up to 115 min.
Images were analyzed by placing regions of interest on the dynamic tomographic images. Regions were drawn in identifiable source organs: brain, heart, lungs, liver, spleen, gallbladder, kidneys, lumbar vertebrae, small intestine, testes, and urinary bladder. […] The mean recovery of activity in the body above the thigh measured by PET was 85.6% of the injected activity measured by a dose calibrator. This recovered total activity in the body was used as the new injected activity for each scan.
At each time point, the activity measured within the organs was converted into the fraction of the injected dose by dividing the organ activities by the recovered injected activity. The area under the curve (AUC) of each organ was calculated by the trapezoidal method until acquisition ended. The area under the curve after the acquisition of the last image (i.e., to infinity) was calculated by assuming that the decline in radioactivity after this time point occurred only via physical decay, without any further biological clearance.
Residence times from the monkeys were converted into corresponding human values by multiplying with a factor to scale organ and body weights: (bm/om) × (oh/bh), where bm and bh are the body weights of monkey and human, respectively, and om and oh are the organ weights of monkey and human, respectively.
Radiation absorbed doses were calculated from the residence times for each source organ. We used the model for a 70-kg adult male in the OLINDA/EXM computer program.

On to `Cc1c(-c2ccc(O[11CH3])cc2)nsc1NC(=O)[C@@H]1C[C@H]1C` [^11C-LY2428703], for which, in series [1] (average of three baseline monkeys), the “fp (plasma free fraction)” value is 0.884%. In addition, the fp in series [1] (monkey blocked with nonradioactive LY2428703: baseline) is on record as 1.25 ± 0.12%; in series [1] (monkey, 2.5 min after blockade with nonradioactive LY2428703), 1.12 ± 0.18%; in series [1] (monkey, 40 min after blockade with nonradioactive LY2428703), 0.89 ± 0.14%; in series [1] (monkey, DCPQ blocking experiment: baseline), 1.074%; in series [1] (monkey, after DCPQ blockade), 1.100%; in series [1] (monkey, after elacridar blockade), 0.912%. In addition, in series [1] (monkey, elacridar blocking experiment: baseline), the fp came to 0.456%. The “time of peak plasma concentration” value in series [2] is reported as 1 to 1.5 min. Further, the radiation-absorbed dose in series [3] (heart wall) is 8.2 μSv/MBq; in series [3] (liver) it was 9.9 μSv/MBq; in series [3] (other organs), “less than 7 μSv/MBq”; in series [3] (testes), 13.7 μSv/MBq. For the same compound, in series [3] (monkey data extrapolated to humans), the effective dose is given as 5.8 μSv/MBq. The “peak uptake in liver” value in series [3] (monkey, average peak) was “approximately 12 SUV”. Further, the “time of peak uptake in liver” value in series [3] (monkey, post-injection) is listed as “about 5 min”.
